Laboratory results: PubChem BioAssay (NCI)
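Cells were grown in 96-well plates and exposed to each compound for 48 hours at five concentrations; endpoints were interpolated linearly between bracketing concentrations, or set to the highest concentration if not reached. At the GI50, growth is halved. TGI: total growth inhibition.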

Key:
Experiment in all cases: NCI-60 cell line screen, 48 h
MCF7 breast = test system: MCF7 breast
HOP-92 NSCLC = test system: HOP-92 NSCLC
ACHN renal = test system: ACHN renal
MDA-MB-435 = test system: MDA-MB-435
SK-OV-3 ovarian = test system: SK-OV-3 ovarian
MALME-3M melanoma = test system: MALME-3M melanoma
DU-145 prostate = test system: DU-145 prostate
K-562 leukemia = test system: K-562 leukemia
CCRF-CEM leukemia = test system: CCRF-CEM leukemia
RXF 393 renal = test system: RXF 393 renal
SF-295 CNS = test system: SF-295 CNS
NCI-H23 lung = test system: NCI-H23 lung
A498 renal = test system: A498 renal
MDA-MB-231 breast = test system: MDA-MB-231 breast
HOP-62 NSCLC = test system: HOP-62 NSCLC
OVCAR-8 ovarian = test system: OVCAR-8 ovarian
SNB-75 CNS = test system: SNB-75 CNS
CAKI-1 renal = test system: CAKI-1 renal
SF-268 CNS = test system: SF-268 CNS
SN12C renal = test system: SN12C renal
NCI-H460 lung = test system: NCI-H460 lung
SW-620 colon = test system: SW-620 colon
RPMI-8226 leukemia = test system: RPMI-8226 leukemia
BT-549 breast = test system: BT-549 breast
SK-MEL-5 melanoma = test system: SK-MEL-5 melanoma
HS 578T breast = test system: HS 578T breast
MOLT-4 leukemia = test system: MOLT-4 leukemia

COc1ccc(/C=C/C(=O)C(=O)/C=C/c2ccc(OC)c(OC)c2)cc1OC
TGI (MCF7 breast): 9.48 µM | GI50 (HOP-92 NSCLC): 15.1 µM | TGI (HOP-92 NSCLC): 82.8 µM | GI50 (ACHN renal): 2.05 µM | TGI (ACHN renal): 5.4 µM | GI50 (MDA-MB-435): 1.16 µM | TGI (MDA-MB-435): 2.98 µM | GI50 (SK-OV-3 ovarian): 36.4 µM | TGI (SK-OV-3 ovarian): > 100 µM | GI50 (MALME-3M melanoma): 5.77 µM | TGI (MALME-3M melanoma): 78.8 µM | GI50 (DU-145 prostate): 3.08 µM | TGI (DU-145 prostate): 14.2 µM | GI50 (K-562 leukemia): 1.07 µM | TGI (K-562 leukemia): > 100 µM | GI50 (CCRF-CEM leukemia): 2.22 µM | TGI (CCRF-CEM leukemia): 20 µM | GI50 (RXF 393 renal): 1.46 µM | TGI (RXF 393 renal): 3.04 µM | GI50 (SF-295 CNS): 3.05 µM | TGI (SF-295 CNS): 31.2 µM | GI50 (NCI-H23 lung): 2.99 µM | TGI (NCI-H23 lung): > 100 µM | GI50 (A498 renal): 2.26 µM | TGI (A498 renal): 19.9 µM | GI50 (MDA-MB-231 breast): 2.25 µM | TGI (MDA-MB-231 breast): 6 µM | GI50 (HOP-62 NSCLC): 6.8 µM | TGI (HOP-62 NSCLC): > 100 µM | GI50 (OVCAR-8 ovarian): 2.97 µM | TGI (OVCAR-8 ovarian): > 100 µM | GI50 (SNB-75 CNS): 2.49 µM | TGI (SNB-75 CNS): 33.9 µM | GI50 (CAKI-1 renal): 3.17 µM | TGI (CAKI-1 renal): > 100 µM | GI50 (SF-268 CNS): 2.53 µM | TGI (SF-268 CNS): 8.58 µM | GI50 (SN12C renal): 3.06 µM | TGI (SN12C renal): 17.7 µM | GI50 (NCI-H460 lung): 3.06 µM | TGI (NCI-H460 lung): 11.2 µM | GI50 (SW-620 colon): 1.08 µM | TGI (SW-620 colon): 3.31 µM | GI50 (RPMI-8226 leukemia): 0.389 µM | TGI (RPMI-8226 leukemia): 2.33 µM | GI50 (BT-549 breast): 1.81 µM | TGI (BT-549 breast): 4.45 µM | GI50 (SK-MEL-5 melanoma): 2.14 µM | TGI (SK-MEL-5 melanoma): 6.15 µM | GI50 (HS 578T breast): 2.71 µM | TGI (HS 578T breast): > 100 µM | GI50 (MOLT-4 leukemia): 2.06 µM | TGI (MOLT-4 leukemia): 19.3 µM
